Source: patent US20060204443A1, “Methods for tumor treatment using dendrimer conjugates” (The Government of the USA as represented by the Secretary …, priority 2005, published 2006)
Entries after “also recorded” stand apart in the source; their conditions may differ.

What was measured:
[1] = test system: Draining Lymph Nodes (LNs) from the Normal Breast Tissue; test: Dynamic micro-MR mammo-lymphangiography after injection into normal mammary gland (Example 1); format: in vivo, mice; details: athymic nu/nu mice, 0.15 μmol Gd into the mammary gland; GPDM imaged at 12, 24, 36 min, then PAMAM-G6
Protocol: Mice were anesthetized with 1.15 mg sodium pentobarbital (Dainabot, Osaka, Japan), and then injected with 0.15-0.24 μmol Gd/5-8 μL of the PAMAM-G6 contrast agent into normal mammary glands or mammary tissue surrounding a tumor (peritumorally). Dynamic micro-MR images were obtained using a 1.5-Tesla superconductive magnet unit (Signa LX, General Electric Medical System, Milwaukee, Wis.) with a birdcage type coil of 3 cm diameter fixed by a custom made coil holder. Single and double “breast coils” used for imaging breasts in humans are commercially available, for example, from GE Medical Systems (Milwaukee, Wis.) and are routinely available in outpatient MRI centers. The mice were wrapped with gauze to stabilize their body temperature and were placed at the center of the coils.
In order to evaluate the lymphatic drainage from the normal mammary gland of either Balb/c mice (n=5) or athymic nu/nu mice (n=5), 3D-fast spoiled gradient echo (3D-fastSPGR (efgre3d package; Signa Horizon, GE); repetition time/echo time 19.2/7.2 msec; inversion time 47 msec; 31.2 kHz, flip angle 30°, 4 excitations; 36 slice encoding steps; scan time 4 min 49 seconds) with chemical shift fat-suppression was used 6, 12, 18, 24, 30, 36, 42, and 48 min after injection of the contrast agent. The coronal images were reconstructed with 0.6-mm section thickness every 0.3-mm. The field of view was 8×4 cm and the size of the matrix was 512×256. The slice data were processed into 3D images using the maximum intensity projection (MIP) method with the same window and level (window 3500 and level 2100) (Advantage Windows, General Electric Medical System). After imaging, the mice were sacrificed by carbon dioxide inhalation.
Athymic nu/nu mice (n=4) were anesthetized and injected with 0.15 μmol Gd of GPDM into the mammary gland, and images were taken 12, 24, and 36 min after injection. Following these three images, these mice were subsequently injected with 0.15 μmol Gd of PAMAM-G6 contrast agent in the mammary gland, and images were taken at 12 and 24 min post-injection of the PAMAM-G6 contrast agent (at 48 and 60 min post-injection of GPDM).

[2] = test system: deep lymphatic system (lymph nodes, thoracic duct); test: Whole-body dynamic 3D-micro-MRL after intracutaneous injection, normal mice (Examples 2, 3); format: in vivo; details: for Number of Mice in Which the Thoracic Duct was Visualized/Number of Mice Examined: Normal Mice, 0.1 μmolGd intracutaneously
Protocol: The mice were anesthetized with 1.15 mg sodium pentobarbital (Dainabot, Osaka, Japan) by intraperitoneal injection, and then injected intracutaneously with 0.1 μmolGd of PAMAM-G8, DAB-G5, PAMAM-G4, Gadomer-17, or GPDM into four middle phalanges in all four extremities. Dynamic micro-MR images were obtained using a 1.5-Tesla superconductive magnet unit (Signa LX, General Electric Medical System, Milwaukee, Wis.) with a round birdcage type coil of 3 cm diameter fixed by a custom-made coil holder. Four to eight female mice (7 weeks old, 18-21 g body weight) in each group were used and each contrast agent was prepared at least three separate times for these imaging studies. The mice were wrapped with gauze to stabilize their body temperature and were placed at the center of the coils.
A 3D-fast spoiled gradient echo (3D-fastSPGR (efgre3d package; Signa Horizon, GE); repetition time/echo time 28.5/7.9 msec; inversion time 65 msec; 31.2 kHz, flip angle 30°, four excitations; 40 slice-encoding steps; scan time 7 min 36 seconds) with chemical shift fat-suppression was used 10, 20, 30, and 45 min after injection of the contrast agents. The coronal images were reconstructed with 0.6-mm section thickness at every 0.3-mm. The field of view was 6×3 cm and the size of the matrix was 512×256. The intensities of the regions of interest (for example, a whole axillary lymph node, and the liver) were measured, and then the time-intensity curves analyzed. The data were expressed as the axillary lymph node-to-muscle and the axillary lymph node-to-liver ratios. The slice data were processed into 3D images using the MIP method with the same window and level (window 3500 and level 2300) (Advantage Windows, General Electric Medical System). Two board-certified radiologists separately read a set of stereo views of 3D-MRL for all studies, and estimated the visualization of the thoracic duct. After imaging, the mice were sacrificed by carbon dioxide inhalation.
In this example, the PAMAM-G8 contrast agent is compared to GPDM. PAMAM-G8 was prepared as described in Example 2, and GPDM was purchased (Schering AG, Berlin, Germany). Animal models, administration of the contrast agents, and 3D-micro-MRL were as described in Example 2.

[3] = test system: axillary lymph nodes and their lymphatic vessels; test: Dynamic 3D-MR lymphangiography, effect of contrast agent size (Example 4); format: in vivo, athymic nu/nu mice
Protocol: Mice were anesthetized with 1.15 mg sodium pentobarbital (Dainabot, Osaka, Japan) by intraperitoneal injection. Then 0.15 μmolGd/5 μL of all nano-size contrast agents or 0.45 μmolGd/5 μL of Gd-[DTPA]-dimeglumine were injected into normal mammary glands or mammary tissue surrounding a tumor. Dynamic MR images were obtained using a 1.5-Tesla superconductive magnet unit (Signa LX, General Electric Medical System, Milwaukee, Wis.) with a birdcage type coil of 3 cm diameter fixed by a custom-made coil holder. The mice were wrapped with gauze to conserve their body temperature and were placed at the center of the coils.
In order to evaluate the effect of contrast agent molecular size on the ability to visualize the lymphatics and lymph nodes of athymic nu/nu mice, thirty five non-tumor bearing nu/nu mice were divided into seven groups (n=5). The mice were evaluated with 3D-fast spoiled gradient echo (3D-fastSPGR (efgre3d package; Signa Horizon, GE); repetition time/echo time 19.2/7.2 msec; inversion time 47 msec; bandwidth 31.2 kHz, flip angle 30°, 4 excitations; 36 slice encoding steps; scan time 4 minutes 49 seconds) with chemical shift fat-suppression at 6, 12, 18, 24, 30, and 36 minutes post-injection of each contrast agent. The coronal images were reconstructed with 0.6-mm section thickness every 0.3-mm. The field of view was 8×4 cm and the size of the matrix was 512×256. The slice data were processed into 3D images using the maximum intensity projection (MIP) method with the same window and level (window 3500 and level 2100) (Advantage Windows, General Electric Medical System). The enhancement ratio was calculated by taking the average signal intensity in the axillary lymph node and dividing it by the signal intensity in the adjacent muscle.

[4] = test system: axillary lymph nodes and their lymphatic vessels; test: as above; format: in vivo, athymic nu/nu mice; details: triple dose, 3 min post-injection (data not shown)
[5] = Tokumitsu et al. 2000; cited from earlier work
[6] = mouse, in vivo, listed as Gd-DTPA

CNC[C@H](O)[C@@H](O)[C@H](O)[C@H](O)CO.CNC[C@H](O)[C@@H](O)[C@H](O)[C@H](O)CO.O=C([O-])CN(CCN(CC(=O)[O-])CC(=O)O)CCN(CC(=O)[O-])CC(=O)O.[Gd+3] [GPDM, gadopentetate dimeglumine, reference compound]
Visualization of draining lymph nodes and lymphatic vessels (FIG. 5) [1]: not well visualized
Image enhancement after 45 minutes ([2]; Example 2, FIG. 10B): Virtually no image enhancement
Visualization of deep lymph nodes ([2]; Example 2, normal mice, 10-45 min after injection): did not allow most of the lymph nodes to be visualized even at early times
Visualization of deep lymph nodes ([2]; Example 3, FIG. 15): not with GPDM
Number of Mice in Which the Thoracic Duct was Visualized/Number of Mice Examined ([2]; 10 min): 2/5
Number of Mice in Which the Thoracic Duct was Visualized/Number of Mice Examined ([2]; 20 min): 0/5
Number of Mice in Which the Thoracic Duct was Visualized/Number of Mice Examined ([2]; 30 min): 0/5
Number of Mice in Which the Thoracic Duct was Visualized/Number of Mice Examined ([2]; 45 min): 0/5
Visualization of axillary lymph nodes and their lymphatic vessels ([3]; 6-36 minutes post-injection into mammary gland): failed to opacify either the lymph nodes or the lymphatic vessels
Signal intensity of adjacent muscle in comparison to G6 and G8 [3, 6]: significantly higher than those measured with G6 and G8; also recorded: higher signal in the adjacent muscle
Signal intensity within the axillary lymph nodes in comparison to G6 and G8 [3, 6]: lower signal intensities; also recorded: significantly lower signal
Contrast between target lymph node and surrounding tissue [4]: did not help to achieve good enough contrast
Clearance from the body [5]: clear too rapidly from the body
